The source made the active and inactive calls. How the calls were made is not given here. *1 amine or outer side, *2 acyl side, *3 side chain or, on linkers, in order; H or OH if unused. Where a SMILES comes first, the peptide text is derived from it. [ ]: non-standard residue; d: D form. X2 = CCC[C@@H](N[*:1])[C@H](C)C(=O)O[C@H](C(=O)[*:2])[C@@H](C)CC; X1 = CC(N[*:1])C(=O)C(C)(C)C(=O)[*:2]; NMeY = CN[C@@H](Cc1ccc(O)cc1)C(=O)O; NMeL = CN[C@@H](CC(C)C)C(=O)O; NMeV = CN[C@H](C(=O)O)C(C)C; NMeA = CN[C@@H](C)C(=O)O
The molecules below were run on HEK-293T NF-kB luciferase reporter counterscreen, luminescence (assay: inhibitors of HEK-293T NF-kB luciferase – HEK-293T cells, luminescence, counter-screen for T-cell antigen receptor NF-kB inhibitors, dose response (AID 489041)).

SMILES	IC50
COc1ccc(CCNc2cc(N3CCN(C(=O)c4ccccc4F)CC3)ccc2[N+](=O)[O-])cc1OC	0.68 µM
COc1ccccc1N1CCN(C(=O)c2cc(=O)c3cc(C)cc(C)c3o2)CC1	76 µM (inactive)
Brc1ccc2c(c1)C(C1=NCCN1)c1ccccc1CS2 (configuration not stated)	> 80 µM (inactive)
CCC(C)(C)c1ccc(OCCCC[n+]2cccc(C)c2C)c(C(C)(C)CC)c1	4.01 µM
CCOc1cc(C(=O)N/N=C/C(Br)=C/c2ccccc2)cc(OCC)c1OCC	1.11 µM
Cc1ccc(C(=O)N/N=C/c2ccc([N+](=O)[O-])s2)cc1	4.36 µM
CC(=O)O[C@@]12CO[C@@H]1C[C@H](O)[C@@]1(C)C(=O)[C@H](O)C3=C(C)[C@@H](OC(=O)[C@H](O)[C@@H](NC(=O)c4ccccc4)c4ccccc4)C[C@@](O)([C@@H](OC(=O)c4ccccc4)C12)C3(C)C (some centres not stated)	> 80 µM (inactive)
CC[C@@]1(O)C(=O)OCc2c1cc1n(c2=O)Cc2cc3c(N)cccc3nc2-1	6.02 µM
CC(=O)N1c2ccc(S(=O)(=O)N3CCC(C(=O)Nc4cccc(C)n4)CC3)cc2CC1C (configuration not stated)	5.57 µM
Cc1ccc(C(=O)c2cc([N+](=O)[O-])ccc2N2CCOCC2)cc1C	10.3 µM
Cc1ccc(C)c(CSc2nc3[nH]ncc3c(=O)[nH]2)c1	4.88 µM
COc1cccc(-c2cc(C(=O)Nc3cc(C)n(Cc4ccc(Cl)cc4)n3)no2)c1	4.24 µM
CCC[C@H]1NC(=O)[C@H](C)N(C)C(=O)C(C)(C)C(=O)C(C)NC(=O)[C@H](Cc2ccc(OC)cc2)N(C)C(=O)[C@H](C(C)C)N(C)C(=O)CNC(=O)[C@H](CC(C)C)N(C)C(=O)CNC(=O)[C@H]([C@@H](C)CC)OC(=O)[C@H]1C (some centres not stated) (cyclo(G[NMeL]G[NMeV][NMeY](Me)[X1][NMeA][X2]))	46.7 µM (inactive)
CC(C)Nc1ccc(C(CC(N)=O)NC(=O)Cc2ccc(Br)cc2)cc1[N+](=O)[O-] (configuration not stated)	68.8 µM (inactive)
O=C(Nc1cccc(C(F)(F)F)c1)c1sc(Cl)nc1C(F)(F)F	40.6 µM (inactive)
O=S(=O)(Nc1cccc2ncccc12)c1cccs1	> 80 µM (inactive)
COc1cc2c(c(OC)c1OC)-c1ccc(OC)c(=O)cc1[C@@H](NC(C)=O)CC2	< 0.16 µM
O=S(=O)(c1cc(F)ccc1F)N1CCN(c2ncnc3ccccc23)CC1	3.94 µM
COC(=O)c1[nH]c2ccc(Br)cc2c1NC(=O)CN1CCN(C2CCCCC2)CC1	13.4 µM
Cc1cc(/C=C2\Sc3ccccc3N2C)cc(C)[n+]1CC1CCCO1 (configuration not stated)	3.74 µM
COc1ccc(OC)c(-c2nnc3n2N=C(c2ccc(OC)c(OC4CCCC4)c2)CS3)c1	3.09 µM
COc1cc(CC(=O)OCC(=O)c2ccc3c(c2)OCCO3)cc(OC)c1OC	0.67 µM
CC1=C([N+](=O)[O-])C(c2ccccc2)C2=C(N1)c1ccccc1C2=O (configuration not stated)	8.44 µM
Cc1ccc(Oc2ccc(OCC(=O)Nc3ccncc3)cc2)cc1	0.62 µM
CC(C)(C)C(=O)Nc1ccc(NC(=O)c2ccco2)nc1	0.27 µM

SMILES	IC50
CCOC(=O)C(C)Oc1cccc2c(=O)n(CC(=O)NCc3ccccc3)ccc12 (configuration not stated)	0.78 µM
CCOC(=O)C(C)Oc1cccc2c(=O)n(CC(=O)NCc3ccco3)ccc12 (configuration not stated)	7.92 µM
Cc1c(C)c2ccc(OCC(=O)Nc3ccccn3)c(C)c2oc1=O	1.78 µM
CCn1c2ccccc2c2cc(NC(=O)c3cc(OC)cc(OC)c3)ccc21	> 80 µM (inactive)
COc1ccc(OC)c(NS(=O)(=O)c2ccc(N3CCCC3=O)cc2)c1	4.36 µM
COc1ccc(CS(=O)(=O)/C(Cl)=C(/Cl)C(=O)Nc2ccc(OC)nc2)cc1	3.46 µM
COc1cc([C@@H]2c3cc4c(cc3[C@H](O)[C@H]3COC(=O)[C@H]23)OCO4)cc(OC)c1OC	< 0.16 µM
COC(=O)c1c(NC(=O)c2ccc([N+](=O)[O-])o2)sc2c1CCN(C(C)C)C2	51.8 µM (inactive)
COc1ccc(CC(=O)Nc2nc(-c3ccc(F)c(F)c3)cs2)cc1OC	2.87 µM
COc1ccc(CS(=O)/C(Cl)=C(/Cl)C(=O)Nc2ccc(OC)nc2)cc1 (configuration not stated)	4.31 µM
Cc1cc(NC(=O)COC(=O)c2ccc(S(=O)(=O)N3CCCc4ccccc43)cc2)no1	28.3 µM (inactive)
CCOc1ccccc1C(=O)N1CCN(c2cccc(Cl)c2)CC1	2.28 µM
CC(C)Oc1ccccc1C1CC(=O)Nc2cc3c(cc21)OCO3 (configuration not stated)	3.01 µM
Cn1cc(/C=N/n2cnc3scc(-c4ccc(Cl)cc4)c3c2=O)c2ccccc21	0.22 µM
Cc1cc(O)c2c(c1O)C(=O)[C@]13C(=C2O)C(=O)[C@@H]2[C@@H](O)[C@H]1[C@@H]1[C@H](O)[C@H]3C(=O)C3=C(O)c4c(O)cc(C)c(O)c4C(=O)[C@]312	11.4 µM
Cc1nnc(N/N=C/c2ccccn2)[nH]c1=O	> 80 µM (inactive)
CCCCCCCCCCn1c2c(c(=N)c3c1CCC3)CCC2	1.29 µM
CCCCc1ccc(NC(=O)c2ccc(N(C)S(C)(=O)=O)cc2)cc1	> 80 µM (inactive)
CCCCCCCCC[n+]1cccc2c3ccccc3ccc21	0.55 µM
O=S1(=O)C=C(Sc2nc3cc(Cl)ccc3o2)c2ccccc21	20.8 µM (inactive)
O=C(NCc1cccs1)C1CCN(c2ccc(S(=O)(=O)N3CCOCC3)cc2Cl)CC1	8.56 µM
O=C1CC(c2cc(F)ccc2F)c2cc3c(cc2N1)CCC3 (configuration not stated)	4.69 µM
Cc1ccccc1NS(=O)(=O)c1ccc(N2CCCC2=O)cc1	42.2 µM (inactive)
Cc1c(C(=O)OCc2ccccc2)[nH]c2c1C(=O)CC(c1ccco1)C2 (configuration not stated)	10.1 µM
COc1cc2nc(NC(=O)c3ccco3)sc(=O)c2cc1OC	66.7 µM (inactive)

SMILES	IC50
COc1ccc(/C=N/NC(=O)COc2ccccc2-c2ccccc2)cc1	4.75 µM
CCOCCCNC(=O)c1ccc2c(c1)N=C(CC)c1cc(Br)ccc1S2	1.46 µM
CCCCOc1ccc(Br)cc1/C(C)=N/NC1=NCCN1	6.14 µM
CN(C)c1ccc(-[n+]2c(-c3ccccc3)cc(-c3ccccc3)cc2-c2ccccc2)cc1	1.48 µM
Cc1c(C(=O)OC2CCCC2)[nH]c2c1C(=O)CC(c1ccco1)C2 (configuration not stated)	0.45 µM
COc1ccc(/C=N/Nc2cc(C)nc3ccc(OC)cc23)c(OC)c1	25.7 µM (inactive)
CCCOC(=O)c1[nH]c2c(c1C)C(=O)CC(c1cccs1)C2 (configuration not stated)	15.2 µM
CCCC1=Nc2cc(C(=O)NCCCOCC)ccc2Sc2ccccc21	0.97 µM
O=C(O)c1ccc(N/N=C/c2ccc3c(c2)OCO3)cc1	1.72 µM
CCc1ccc(/C=N/NC(=O)c2cc(C3CC3)nc3ccccc23)s1	10.3 µM
CCOc1ccc(N(CC(=O)Nc2ccccc2C)S(=O)(=O)c2c(C)noc2C)cc1	17 µM
Cn1ncc2c(N3CCN(c4ccc(Cl)c(Cl)c4)CC3)ncnc21	1.29 µM
COc1ccc(Nc2nc(-c3sc(C)nc3C)cs2)cc1	6.91 µM
COc1ccc(/C=C/C(=O)c2cc(F)ccc2OC(=O)c2ccccc2)cc1OC	< 0.16 µM
COC(=O)[C@]12OC[C@]34C([C@@H](O)[C@@H]1O)[C@]1(C)CC(=O)C(O)=C(C)[C@@H]1C[C@H]3OC(=O)[C@H](O)[C@@H]24 (some centres not stated)	0.548 µM
CN=c1scc(-c2cccs2)n1/N=C/c1ccccc1O	< 0.16 µM
COc1cc2c(c(OC)c1OC)-c1ccc(OC)c(=O)cc1[C@@H](N(C)CC#CCO)CC2	0.56 µM
Cc1cc2c(cc1C)C(c1ccccc1OC(C)C)CC(=O)N2 (configuration not stated)	13.3 µM
Cc1ccc(N(C)S(=O)(=O)c2ccc(-c3cnc(C4CC4)o3)cc2)cc1	4.53 µM
CCOC(=O)c1ccc2nc(Nc3nc4ccc(F)cc4s3)sc2c1	1.14 µM
Cc1ccc(S(=O)(=O)Cc2ccc(C(=O)N3CCN(c4cccc(C)c4C)CC3)o2)cc1	3.22 µM
Cc1cccc(N2CCN(C(=O)c3c(-c4ccccc4)noc3C)CC2)c1C	11.1 µM
Oc1ccc2ccccc2c1/C=N/Nc1nnc(-c2ncc[nH]2)c2ccccc12	0.52 µM
Cn1nc(C(C)(C)C)cc1C(=O)NCc1cc(F)cc2c1OCOC2	2.47 µM
O=C(Nc1ccc(S(=O)(=O)N2CCOCC2)cc1)c1ccc(CN2CCc3ccccc3C2)cc1	1.29 µM

SMILES	IC50
COc1cccc(N2CCN(C(=O)c3ccc(CS(=O)c4ccccc4Cl)o3)CC2)c1 (configuration not stated)	6.1 µM
CCN(CC)S(=O)(=O)c1ccc(NC(=O)c2ccc(CN3CCOCC3)cc2)cc1	2.54 µM
CCCN1C=CC(=C2C(=O)c3ccccc3C2=O)C=C1	1.1 µM
COc1cccc(-c2cc(=O)c3cc(NC(=O)c4ccccc4)ccc3[nH]2)c1	> 80 µM (inactive)
COc1cccc(/C=N/Nc2ncnc3c2ncn3Cc2ccccc2)c1O	0.25 µM
CNC[C@@H](CC1CCCCC1)NC[C@H](CC(C)C)NCCc1cccc(C(F)(F)F)c1	12.8 µM
CCn1c2ccccc2c2cc(Nc3cc(C)nc4ncnn34)ccc21	1.34 µM
C=C(C)C(=O)O[C@H]1C/C(C)=C\C(=O)/C=C(\C)[C@H](O)[C@@H]2OC(=O)C(=C)[C@@H]21	19.7 µM
Cn1c(SC2=CS(=O)(=O)c3ccccc32)nc2ccccc21	12.2 µM
CCCCCCCOc1ccc(OC(=O)c2cccnc2)cc1	> 80 µM (inactive)
COc1cccc(/C=N/Nc2ncnc3scc(-c4ccccc4)c23)c1O	4.6 µM
Cc1cccc(N2CCN(C(=O)c3ccc4[nH]c(C)c(C)c4c3)CC2)c1C	19.2 µM
COc1ccc(/C=N/NC(=O)c2[nH]c3ccc(Br)cc3c2-c2ccccc2)cc1	21.1 µM (inactive)
CCCCCC(=O)N[C@@H](c1ccccc1)[C@@H](O)C(=O)O[C@H]1C[C@@]2(O)[C@@H](OC(=O)c3ccccc3)C3[C@](C)(C(=O)[C@H](OC(C)=O)C(=C1C)C2(C)C)[C@@H](O)C[C@H]1OC[C@@]31OC(C)=O (some centres not stated)	> 80 µM (inactive)
COc1ccc(NC(=O)Cn2nnc(-c3ccccc3NS(=O)(=O)c3ccc(OC)cc3)n2)cc1	13.6 µM
CC(C)(C)OC(=O)NCCCCCc1cn(CC(=O)NCCCCCCCCCCC(=O)N2CCN(C(=O)OC(C)(C)C)CC2)nn1	0.22 µM
CCCCCCCCCn1c2c(c(=N)c3c1CCC3)CCCC2	0.68 µM
CCc1ccc(/C=N/NC(=O)c2cc(-c3ccncc3)nc3ccccc23)s1	7.66 µM
CCOC(=O)c1[nH]c(C=O)c(C(=O)OCC)c1C	15.5 µM
COc1cccc(CN(C)C(=O)c2ccc(OCC(=O)Nc3cccc(C(F)(F)F)c3)c(OC)c2)c1	1.88 µM
Cc1ccc(-c2cc(-c3ccc(C)cc3)[n+](-c3ccccc3)c(-c3ccc(C)cc3)c2)cc1	1.1 µM
COc1ccc(Cl)cc1NC(=O)CN(C)CC(=O)Nc1ccccc1N1CCOCC1	12 µM

Reference: PubChem BioAssay AID489041 (Sanford-Burnham Center for Chemical Genomics, 2010)
